These results are taken from patent US7122657B2, “UDP-glucose aglycon-glucosytransferase” (priority 1999, dated 2006).

For test [1], the system named is glucosyltransferase activity of desalted crude etiolated Sorghum seedling extract. Briefly: Substrate specificity of desalted crude etiolated Sorghum seedling extract (TLC, 14C-UDP-glucose). The settings on record: aglycone substrate. It counts as biochemical, Sorghum bicolor. More on the design: key: ▪: indicate that a radiolabelled product was visualised after incubation with the respective aglycone substrate; □: indicate that no radiolablled products could be detected under the experimental conditions employed. Here is the method:
(§1) Generally a 20 μl reaction mixture including • 100 mM Tris HCl (pH 7.9), • 1–5 μM ^14C-UDP-glucose (11.0 GBq mmol^−1, Amersham LIFE SCIENCE), • 0–300 μM UDP-glucose, • 0–20 mM p-hydroxymandelonitrile (dissolved in water, freshly prepared), • 25 mM γ-gluconolactone, • 0–1 mg BSA and • 0.5–10 μl of protein preparation, is incubated at 30° C. between 2 minutes and 2 hours. Thereafter the reaction is terminated by the addition of 1/10 of the reaction volume of 10% acetic acid. The same assay conditions are used to determine the glucosylation of mandelonitrile, benzoic acid, benzylalcohol, geraniol and a number of other aglycons.
(§2) For TLC analysis the reaction mixture is applied to Silica Gel 60 F254 plates (Merck), dried and eluted in a solvent containing ethyl acetate:acetone:dichloromethane:methanol:[…] (40:30:12:10:8, v/v). Plates are dried for one hour at room temperature and exposed to storage phosphorlmaging plates (Molecular Dynamics) prior to scanning on a Storm 860 Phosphorimager (Molecular Dynamics).
(§3) Substrate Specificity of Recombinant sbHMNGT Compared to Desalted Crude Etiolated Sorghum Seedling Extract
(§4) Glucosyltransterase activity was determined by TLC using ^14C-UDP-glucose. Filled boxes in Table 1 below (▪) indicate that a radiolabelled product was visualised after incubation with the respective aglycone substrate. Empty boxes (□) indicate that no radiolablled products could be detected under the experimental conditions employed. Figures in brackets indicate the relative Vmax for each aglycon with calculated standard deviations.

In test [2] the target is T1, recombinant sbHMNGT (UDP-glucose:p-hydroxymandelonitrile-glucosyltransferase) (Sorghum bicolor, UniProt Q9SBL1).
T1 construct: are used to amplify a 1500 bp full-length sbHMNGT insert by PCR; made in house; host or cells: E. coli JM109, vector pSP19g10L
T1 sequence (Q9SBL1 whole entry): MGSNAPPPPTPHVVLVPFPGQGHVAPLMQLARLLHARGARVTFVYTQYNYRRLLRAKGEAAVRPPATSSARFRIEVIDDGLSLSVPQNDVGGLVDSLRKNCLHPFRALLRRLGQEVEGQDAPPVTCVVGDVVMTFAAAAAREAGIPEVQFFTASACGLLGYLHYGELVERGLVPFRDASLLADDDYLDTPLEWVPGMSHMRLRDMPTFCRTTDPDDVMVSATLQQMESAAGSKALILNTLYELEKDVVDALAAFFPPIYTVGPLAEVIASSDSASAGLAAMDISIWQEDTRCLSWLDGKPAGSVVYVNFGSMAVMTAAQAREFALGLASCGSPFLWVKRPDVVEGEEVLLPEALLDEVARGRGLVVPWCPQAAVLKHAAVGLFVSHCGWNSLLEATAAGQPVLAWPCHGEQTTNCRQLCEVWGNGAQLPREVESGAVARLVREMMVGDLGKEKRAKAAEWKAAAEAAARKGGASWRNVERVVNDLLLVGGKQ
Briefly: Substrate specificity of recombinant sbHMNGT (TLC, 14C-UDP-glucose). It counts as biochemical. More on the design: key to ACTIVITY Recombinant sbHMNGT (radiolabelled glucoside product): ▪: indicate that a radiolabelled product was visualised after incubation with the respective aglycone substrate; □: indicate that no radiolablled products could be detected under the experimental conditions employed. The settings on record: for ACTIVITY Recombinant sbHMNGT (radiolabelled glucoside product): 1.25 mM aglycone, 100 ng recombinant sbHMNGT, 20 min at 30° C., TLC. Here is the method: as §1
To determine the substrate specificity of recombinant sbHMNGT incubation lasts for 20 min at 30° C. and the general protocol above is adapted to include • 1.25 mM aglycone (dissolved in ethanol except for flavonoids which are dissolved in ethylene glycol monoether), • 1.25 μM ^14C-UDP-glucose, • 12.5 μM UDP-glucose, • 100 ng recombinant sbHMNGT, and • 4 μg BSA.
as §2, §3, §4

Test [3] deals with T2, sbHMNGT (Sorghum bicolor, UniProt Q9SBL1). Briefly: Quantitative determination of the activity of recombinant sbHMNGT (Vmax). It counts as biochemical. More on the design: are used to amplify a 1500 bp full-length sbHMNGT insert by PCR; made in house; host or cells: E. coli JM109, vector pSP19g10L. The settings on record: for relative Vmax with calculated standard deviations: relative to p-hydroxymandelonitrile, 1, 5 or 10 mM aglycone, 4 minutes at 30° C. Here is the method: as §1
T2 sequence (Q9SBL1 whole entry): as above
Quantitative determination of the activity of recombinant sbHMNGT is carried out using 4 minutes incubation at 30° C. Analyses are carried out as for the determination of substrate specificity except that the reaction mixtures are composed as folows: • 1, 5 or 10 mM aglycone, • 5 μM ^14C-UDP-glucose, • 0.2 mM UDP-glucose, • 200 ng recombinant sbHMNGT, and • 24 μg BSA.
as §4

Test [4] has as its target T2, sbHMNGT. Briefly: sbHMNGT activity assay during purification (LSC). Also noted: from tissue; host or cells: etiolated Sorghum bicolor seedling shoots; ammonium sulphate, Q-sepharose and Reactive Yellow 3 fractions. It counts as biochemical. The note with it: native sbHMNGT. The method, then: as §1
For analysis by liquid scintillation counting (LSC) reaction mixtures are extracted with 400 μl of ethyl acetate to separate glucosides from unincorporated ^14C-UDP-glucose. 2 ml of Ecoscint A (National Diagnostics, New Jersey, USA) are added to 250 μl of each ethyl acetate extract and analyzed using a Win Spectral 1414 (Wallac) liquid scintillation counter. Mandelonitrile is used as substrate to assay fractions generated by liquid chromatography.
Except where indicated all steps are carried out at 4° C. […] Furthermore, the absence of a hydroxyl group at the para-position of the benzene ring rules out the possibility of p-glucosyloxymandelonitrile synthesis, which would be indistinguishable from dhurrin using the LSC assay.

Molecules are shown by their SMILES.

For the molecule `CCCCCCO` [1-hexanol], the “ACTIVITY Crude Sorghum extract (radiolabelled glucoside product)” value (“ACTIVITY Crude Sorghum extract” below) in test [1] is recorded as “▪”. Further, in test [2], the “ACTIVITY Recombinant sbHMNGT (radiolabelled glucoside product)” value (from here on “ACTIVITY Recombinant sbHMNGT”) is “▪”.
Consider `O=C(O)C=Cc1ccccc1O` [2-hydroxy cinnamic acid], for which the “ACTIVITY Crude Sorghum extract” value in test [1] is recorded as “▪”. For the same molecule, the “ACTIVITY Recombinant sbHMNGT” value in test [2] was “□”.
Regarding `COc1cccc(CO)c1O` [2-hydroxy-3-methoxybenzlalcohol], in test [1], the “ACTIVITY Crude Sorghum extract” value is recorded as “▪”. In test [2], the “ability of sbHMNGT to glucosylate the aglycon” value (“ability of sbHMNGT” for short) is listed as “glucosylate” and the “ACTIVITY Recombinant sbHMNGT” value was “▪”.
Take `CCCC(C)=CCO` [3-methyl-2-hexen-1-ol]: the “ACTIVITY Crude Sorghum extract” value in test [1] is on record as “▪”. Further, the “ACTIVITY Recombinant sbHMNGT” value in test [2] is “▪”.
As to `CCC=C(C)CCO` [3-methyl-3-hexen-1-ol], the “ACTIVITY Crude Sorghum extract” value in test [1] was “▪”. In test [2], the “ACTIVITY Recombinant sbHMNGT” value is recorded as “▪”.
As for `CC(C)(O)C#N` [acetone cyanohydrin], the “ACTIVITY Crude Sorghum extract” value in test [1] is on record as “□”. In test [2], the “ACTIVITY Recombinant sbHMNGT” value is given as “□”.
As for `O=c1cc(-c2ccc(O)cc2)oc2cc(O)cc(O)c12` [apigenin], in test [1], the “ACTIVITY Crude Sorghum extract” value is listed as “▪”. For the same molecule, the “ACTIVITY Recombinant sbHMNGT” value in test [2] was “□”.
As to `O=C(O)c1ccccc1` [benzoic acid], in test [1], the “ACTIVITY Crude Sorghum extract” value is “▪”. Further, the “rate of glucosylation compared with the cyanohydrins” value at sbHMNGT [3] was “lower than those observed for the cyanohydrins”. For the same molecule, the “relative Vmax with calculated standard deviations” value on sbHMNGT [3] (recombinant sbHMNGT) was “(4.2 ± 0.8%)”. In test [2], the “ability of sbHMNGT” value is listed as “glucosylate” and the “ACTIVITY Recombinant sbHMNGT” value is “▪”.
Regarding `OCc1ccccc1` [benzyl alcohol], the “ACTIVITY Crude Sorghum extract” value in test [1] was “▪”. The “rate of glucosylation compared with the cyanohydrins” value at sbHMNGT [3] is recorded as “lower than those observed for the cyanohydrins”. The “relative Vmax with calculated standard deviations” value on sbHMNGT [3] (recombinant sbHMNGT) is given as “(13.1 ± 2.1%)”. In addition, in test [2], the “ability of sbHMNGT” value is “glucosylate” and the “ACTIVITY Recombinant sbHMNGT” value is listed as “▪”.
As to `COc1ccc(-c2coc3cc(O)cc(O)c3c2=O)cc1` [biochanin A], in test [1], the “ACTIVITY Crude Sorghum extract” value is “▪”. Further, the “ACTIVITY Recombinant sbHMNGT” value in test [2] was “□”.
In the case of `O=C(O)/C=C/c1ccc(O)c(O)c1` [caffeic acid], in test [1], the “ACTIVITY Crude Sorghum extract” value is “▪”. Besides, the “ACTIVITY Recombinant sbHMNGT” value in test [2] is given as “□”.
In the case of `CC/C=C\CCO` [cis-3-hexen-1-ol], the “ACTIVITY Crude Sorghum extract” value in test [1] was “▪”. Moreover, the “ACTIVITY Recombinant sbHMNGT” value in test [2] was “▪”.
As for `O=C(O)c1cc(O)ccc1O` [gentisic acid], in test [1], the “ACTIVITY Crude Sorghum extract” value is reported as “□”. The “ACTIVITY Recombinant sbHMNGT” value in test [2] was “□”.
Turning to `CC(C)=CCC/C(C)=C/CO` [geraniol], the “ACTIVITY Crude Sorghum extract” value in test [1] was “▪”. In addition, the “rate of glucosylation compared with the cyanohydrins” value at sbHMNGT [3] was “lower than those observed for the cyanohydrins”. Besides, the “relative Vmax with calculated standard deviations” value on sbHMNGT [3] (recombinant sbHMNGT) is on record as “(11.0 ± 0.5%)”. In test [2], the “ability of sbHMNGT” value is “glucosylate” and the “ACTIVITY Recombinant sbHMNGT” value is “▪”.
With `Oc1ccc(O)cc1` [hydroquinone], in test [1], the “ACTIVITY Crude Sorghum extract” value is “▪”. Also, in test [2], the “ACTIVITY Recombinant sbHMNGT” value is “□”.
Take `N#CC(O)c1ccccc1` (centres unmarked) [mandelonitrile]: the “ACTIVITY Crude Sorghum extract” value in test [1] is on record as “▪”. The “substrate quality compared with p-hydroxymandelonitrile” value on sbHMNGT [4] is reported as “equally good substrate”. On sbHMNGT [3] (recombinant sbHMNGT), the “relative Vmax with calculated standard deviations” value is on record as “(77.8 ± 8.6%)”. The “ACTIVITY Recombinant sbHMNGT” value in test [2] was “▪”.
As for `O=C1C[C@@H](c2ccc(O)cc2)Oc2cc(O)cc(O)c21` [naringenin], the “ACTIVITY Crude Sorghum extract” value in test [1] is on record as “▪”. Further, the “ACTIVITY Recombinant sbHMNGT” value in test [2] is recorded as “□”.
For `CC(C)=CCC/C(C)=C\CO` [nerol], the “ACTIVITY Crude Sorghum extract” value in test [1] was “▪”. For the same molecule, in test [2], the “ability of sbHMNGT” value is recorded as “glucosylate” and the “ACTIVITY Recombinant sbHMNGT” value is reported as “▪”.
Consider `CC(C)=CCCC(C)CCO` (centres unmarked) [p-citronellol], for which the “ACTIVITY Crude Sorghum extract” value in test [1] is recorded as “▪”. Besides, in test [2], the “ability of sbHMNGT” value is listed as “glucosylate” and the “ACTIVITY Recombinant sbHMNGT” value is listed as “▪”.
As for `O=Cc1ccc(O)cc1` [p-hydroxybenzaldehyde], the “ACTIVITY Crude Sorghum extract” value in test [1] is listed as “▪”. For the same molecule, the “ACTIVITY Recombinant sbHMNGT” value in test [2] is recorded as “□”.
In the case of `O=C(O)c1ccc(O)cc1` [p-hydroxybenzoic acid], in test [1], the “ACTIVITY Crude Sorghum extract” value was “▪”. Moreover, the “ACTIVITY Recombinant sbHMNGT” value in test [2] was “□”.
For `OCc1ccc(O)cc1` [p-hydroxybenzyl alcohol], in test [1], the “ACTIVITY Crude Sorghum extract” value is “▪”. Moreover, the “ACTIVITY Recombinant sbHMNGT” value in test [2] is “▪”.
Take `O=C(O)C(O)c1ccc(O)cc1` (centres unmarked) [p-hydroxymandelic acid]: in test [1], the “ACTIVITY Crude Sorghum extract” value was “▪”. Further, the “ACTIVITY Recombinant sbHMNGT” value in test [2] is “□”.
`N#CC(O)c1ccc(O)cc1` (centres unmarked) [p-hydroxymandelonitrile]: the “ACTIVITY Crude Sorghum extract” value in test [1] was “▪”. At sbHMNGT [3] (recombinant sbHMNGT), the Vmax is given as 1500 mol of product/mol of sbHMNGT/sec and the “relative Vmax with calculated standard deviations” value is reported as “(100 ± 7.2%)”. Moreover, in test [2], the “ACTIVITY Recombinant sbHMNGT” value is reported as “▪”.
As to `O=c1c(O)c(-c2ccc(O)c(O)c2)oc2cc(O)cc(O)c12` [quercetin], in test [1], the “ACTIVITY Crude Sorghum extract” value is on record as “▪”. For the same molecule, the “ACTIVITY Recombinant sbHMNGT” value in test [2] was “□”.
Regarding `Oc1ccc(C=Cc2cc(O)cc(O)c2)cc1` [resveratrol], the “ACTIVITY Crude Sorghum extract” value in test [1] is on record as “▪”. For the same molecule, the “ACTIVITY Recombinant sbHMNGT” value in test [2] was “□”.
With `O=C(O)c1ccccc1O` [salicylic acid], in test [1], the “ACTIVITY Crude Sorghum extract” value was “▪”. The “ACTIVITY Recombinant sbHMNGT” value in test [2] is reported as “□”.
Consider `C[C@H]1CC[C@]2(NC1)O[C@H]1C[C@H]3[C@@H]4CC[C@H]5C[C@@H](O)CC[C@]5(C)[C@H]4CC[C@]3(C)[C@H]1[C@@H]2C` [tomatidine], for which, in test [1], the “ACTIVITY Crude Sorghum extract” value is “▪”. Also, the “ACTIVITY Recombinant sbHMNGT” value in test [2] is “□”.
With `CCC/C=C/CO` [trans-2-hexen-1-ol], the “ACTIVITY Crude Sorghum extract” value in test [1] is on record as “▪”. Further, the “ACTIVITY Recombinant sbHMNGT” value in test [2] is on record as “▪”.
For `COc1cc(C(=O)O)ccc1O` [vanillic acid], the “ACTIVITY Crude Sorghum extract” value in test [1] was “▪”. For the same molecule, in test [2], the “ability of sbHMNGT” value is “glucosylate” and the “ACTIVITY Recombinant sbHMNGT” value was “▪”.
As to `COc1cc(C=O)ccc1O` [vanillin], in test [1], the “ACTIVITY Crude Sorghum extract” value was “▪”. In test [2], the “ability of sbHMNGT” value is recorded as “glucosylate” and the “ACTIVITY Recombinant sbHMNGT” value is given as “▪”.
